From PubChem BioAssay AID1845204 (Molecular Pharmacology Branch, DTP, NCI, 2023)
Values joined by “and” are separate entries in the source; they are usually repeats but may differ in a detail not shown here. Equal entries are not always repeated.

Tested on: HSSY-II tumor spheroid viability
Assay: Anticancer human tumor HSSY-II cell line growth inhibition;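 note: spheroids exposed to compounds for seven days before reading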;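 for viability, T/C: percent of DMSO vehicle control viability so 100% = untreated level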
Details: spheroids with HUVEC and MSC; for viability, T/C: stronger effect = lower value
In short: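 Complex spheroids of malignant cells with endothelial cells and mesenchymal stem cells; agents alone or combined, from near clinical Cmax (or 10 microM if unknown) down in half-log steps, 0.25% DMSO final.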

Cc1cc(C)c(CNC(=O)c2cc(-c3ccc(CN4CCOCC4)cc3)cc3c2cnn3C2CCCC2)c(=O)[nH]1 + Cn1nnc2c(C(N)=O)ncn2c1=O
IC50 (curve of first compound, second compound 1 µM): > 10 µM | IC50 (curve of first compound, second compound 3.16 µM): > 10 µM | IC50 (curve of first compound, second compound 10 µM): > 10 µM | IC50 (curve of first compound, second compound 31.6 µM): > 10 µM | IC50 (curve of first compound, second compound 100 µM): > 10 µM | viability, T/C (second compound 1 µM, first compound 0.0316 µM): 98.4% | viability, T/C (second compound 1 µM, first compound 0.1 µM): 105% | viability, T/C (second compound 1 µM, first compound 0.316 µM): 92.8% | viability, T/C (second compound 1 µM, first compound 1 µM): 97.2% | viability, T/C (second compound 1 µM, first compound 3.16 µM): 91.4% | viability, T/C (second compound 1 µM, first compound 10 µM): 79.8% | viability, T/C (second compound 3.16 µM, first compound 0.0316 µM): 101% | viability, T/C (second compound 3.16 µM, first compound 0.1 µM): 99.1% | viability, T/C (second compound 3.16 µM, first compound 0.316 µM): 95.1% | viability, T/C (second compound 3.16 µM, first compound 1 µM): 98.7% | viability, T/C (second compound 3.16 µM, first compound 3.16 µM): 89.9% | viability, T/C (second compound 3.16 µM, first compound 10 µM): 72.7% | viability, T/C (second compound 10 µM, first compound 0.0316 µM): 98% | viability, T/C (second compound 10 µM, first compound 0.1 µM): 98.2% | viability, T/C (second compound 10 µM, first compound 0.316 µM): 100% | viability, T/C (second compound 10 µM, first compound 1 µM): 93.5% | viability, T/C (second compound 10 µM, first compound 3.16 µM): 92.6% | viability, T/C (second compound 10 µM, first compound 10 µM): 68.4% | viability, T/C (second compound 31.6 µM, first compound 0.0316 µM): 104% | viability, T/C (second compound 31.6 µM, first compound 0.1 µM): 98% | viability, T/C (second compound 31.6 µM, first compound 0.316 µM): 94.4% | viability, T/C (second compound 31.6 µM, first compound 1 µM): 102% | viability, T/C (second compound 31.6 µM, first compound 3.16 µM): 88.4% | viability, T/C (second compound 31.6 µM, first compound 10 µM): 73.8% | viability, T/C (second compound 100 µM, first compound 0.0316 µM): 94% | viability, T/C (second compound 100 µM, first compound 0.1 µM): 93.9% | viability, T/C (second compound 100 µM, first compound 0.316 µM): 91% | viability, T/C (second compound 100 µM, first compound 1 µM): 95.5% | viability, T/C (second compound 100 µM, first compound 3.16 µM): 85.2% | viability, T/C (second compound 100 µM, first compound 10 µM): 70.4%

COc1ccc([C@@H](O)c2cc(-c3ncnc4cc(N5CCOCC5)ccc34)c(F)cc2Cl)nn1
viability, T/C (compound 0.0316 µM): 99% (2×) and 100% | viability, T/C (compound 0.1 µM): 108% and 97.5% and 98% | viability, T/C (compound 0.316 µM): 98.5% and 89.3% and 86.9% | viability, T/C (compound 1 µM): 67.9% and 60.5% and 66.9% | viability, T/C (compound 3.16 µM): 40.8% and 40.2% and 43.4% | viability, T/C (compound 10 µM): 15.2% and 20.4% and 21.2% | IC50 (curve of compound): 2.1 µM and 1.83 µM and 2.26 µM

CC1COCCN1c1cc(-c2ccnn2C)c2ccnc(-c3ccn[nH]3)c2n1 (configuration not stated) + COc1cc2c(cc1O)CCNC21CSC2c3c(OC(C)=O)c(C)c4c(c3C(COC1=O)N1C(O)C3Cc5cc(C)c(OC)c(O)c5C(C21)N3C)OCO4
IC50 (curve of first compound, second compound 30 pM): < 0.0316 µM | IC50 (curve of first compound, second compound 94.9 pM): < 0.0316 µM | IC50 (curve of first compound, second compound 0.0003 µM): < 0.0316 µM | IC50 (curve of first compound, second compound 0.000949 µM): < 0.0316 µM | IC50 (curve of first compound, second compound 0.003 µM): < 0.0316 µM | viability, T/C (second compound 30 pM, first compound 0.0316 µM): 14.4% | viability, T/C (second compound 30 pM, first compound 0.1 µM): 6.1% | viability, T/C (second compound 30 pM, first compound 0.316 µM): 4.22% | viability, T/C (second compound 30 pM, first compound 1 µM): 3.28% | viability, T/C (second compound 30 pM, first compound 3.16 µM): 3.45% | viability, T/C (second compound 30 pM, first compound 10 µM): 5.25% | viability, T/C (second compound 94.9 pM, first compound 0.0316 µM): 8.99% | viability, T/C (second compound 94.9 pM, first compound 0.1 µM): 6.52% | viability, T/C (second compound 94.9 pM, first compound 0.316 µM): 3.33% | viability, T/C (second compound 94.9 pM, first compound 1 µM): 2.89% | viability, T/C (second compound 94.9 pM, first compound 3.16 µM): 3.13% | viability, T/C (second compound 94.9 pM, first compound 10 µM): 4.37% | viability, T/C (second compound 0.0003 µM, first compound 0.0316 µM): 5.86% | viability, T/C (second compound 0.0003 µM, first compound 0.1 µM): 5.4% | viability, T/C (second compound 0.0003 µM, first compound 0.316 µM): 3.44% | viability, T/C (second compound 0.0003 µM, first compound 1 µM): 2.22% | viability, T/C (second compound 0.0003 µM, first compound 3.16 µM): 1.93% | viability, T/C (second compound 0.0003 µM, first compound 10 µM): 2.79% | viability, T/C (second compound 0.000949 µM, first compound 0.0316 µM): 2.32% | viability, T/C (second compound 0.000949 µM, first compound 0.1 µM): 1.87% | viability, T/C (second compound 0.000949 µM, first compound 0.316 µM): 1.51% | viability, T/C (second compound 0.000949 µM, first compound 1 µM): 0.74% | viability, T/C (second compound 0.000949 µM, first compound 3.16 µM): 0.11% | viability, T/C (second compound 0.000949 µM, first compound 10 µM): 0.34% | viability, T/C (second compound 0.003 µM, first compound 0.0316 µM): 0.49% | viability, T/C (second compound 0.003 µM, first compound 0.1 µM): 0.59% | viability, T/C (second compound 0.003 µM, first compound 0.316 µM): 0.48% | viability, T/C (second compound 0.003 µM, first compound 1 µM): 0.35% | viability, T/C (second compound 0.003 µM, first compound 3.16 µM): 0.32% | viability, T/C (second compound 0.003 µM, first compound 10 µM): 0.51%
